Measurements reported in publication PMC7596181 (Frontiers in Immunology, 2020).

Tests used:
Type in all cases: cell-based
[1] = system: human THP-1 cells; test: TNFα secretion (ELISA) by THP-1 cells; settings: THP-1, PMA-treated, 18-24 h
Description: (§1) Human and mouse HEK-Blue reporter cells express human or mouse CD14, MD2, and TLR4 and secreted embryonic alkaline phosphatase (SEAP) under control of a promoter with binding sites for NFκB and AP-1 transcription factors (InvivoGen cat. nos. hkb-htlr4 and hkb-mtlr4). Cells were cultured as directed by the supplier, with the exception that Glutamax (ThermoFisher cat. no. 10569010) was used in place of L-glutamine, and TrypLE Express (ThermoFisher cat. no. 12605010) was used to release adherent cells for each passage. […]
(§2) ELISA was performed to measure TNFα secretion by cell-lines and primary cells exposed to TLR4 reagents as a measure of receptor activation. […] Human or mouse TNα was quantified using ELISA kits as directed by the kit supplier (eBioscience cat. nos. 88-7324-77 and 88-7324-88, respectively) using an Emax plate reader and SoftMax Pro analytical software (Molecular Devices, LLC). […]
(§3) Pharmacological profiles of the TLR4 reagents were generated by performing dose response curves in one of four formats. 1) Agonist potency and efficacy (EC50 and height of dose plateau, respectively) were measured by diluting TLR4 reagents successively in complete culture medium [DMEM or RPMI supplemented with fetal bovine serum (FBS) or RPMI supplemented with human serum, depending on cell-type]. […]

[2] = system: mouse RAW264.7 cells; test: TNFα secretion (ELISA) by RAW264.7 cells; settings: RAW264.7, 18-24 h
Description: as §1, §2, §3

[3] = molecular target: T1, human TLR4 (Homo sapiens, UniProt O00206+Q9Y6Y9); test: Competitive vs non-competitive antagonist type: agonist diluted in a fixed concentration of inhibitor, human TLR4 HEK-Blue SEAP; design: host or cells: HEK-Blue (HEK293-derived) reporter cells; settings: fixed ML3 3 μM, ML4A 3 μM or Lipid IVa 0.1 μM; agonist PHAD or 3D-6A-PHAD diluted from 10 μM
T1 sequence (O00206 24-839): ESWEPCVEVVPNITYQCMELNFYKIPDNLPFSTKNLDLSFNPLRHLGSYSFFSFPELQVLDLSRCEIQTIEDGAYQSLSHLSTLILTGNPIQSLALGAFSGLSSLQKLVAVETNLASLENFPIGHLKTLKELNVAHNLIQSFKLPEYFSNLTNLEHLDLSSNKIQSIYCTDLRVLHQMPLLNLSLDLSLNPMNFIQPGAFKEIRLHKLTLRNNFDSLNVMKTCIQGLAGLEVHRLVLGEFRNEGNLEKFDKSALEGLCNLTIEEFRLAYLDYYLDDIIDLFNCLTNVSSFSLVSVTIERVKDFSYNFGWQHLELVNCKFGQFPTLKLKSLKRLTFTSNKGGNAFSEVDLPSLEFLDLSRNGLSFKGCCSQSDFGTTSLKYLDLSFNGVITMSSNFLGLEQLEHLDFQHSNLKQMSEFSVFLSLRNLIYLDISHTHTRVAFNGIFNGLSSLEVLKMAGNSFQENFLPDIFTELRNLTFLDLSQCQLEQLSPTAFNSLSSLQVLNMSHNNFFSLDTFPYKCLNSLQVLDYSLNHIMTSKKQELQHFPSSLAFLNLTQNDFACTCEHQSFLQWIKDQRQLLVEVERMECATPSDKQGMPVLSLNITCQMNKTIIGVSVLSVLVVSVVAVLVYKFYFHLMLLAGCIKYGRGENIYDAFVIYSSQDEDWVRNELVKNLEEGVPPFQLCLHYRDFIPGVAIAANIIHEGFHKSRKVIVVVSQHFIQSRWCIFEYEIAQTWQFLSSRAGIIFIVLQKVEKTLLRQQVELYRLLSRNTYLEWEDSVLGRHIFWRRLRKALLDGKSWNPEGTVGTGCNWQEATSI
T1 sequence (Q9Y6Y9 17-160 limits assumed): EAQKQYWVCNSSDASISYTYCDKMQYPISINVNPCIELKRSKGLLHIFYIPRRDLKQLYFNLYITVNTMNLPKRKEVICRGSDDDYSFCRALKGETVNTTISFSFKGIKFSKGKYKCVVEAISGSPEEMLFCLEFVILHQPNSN
Description: (§4) SEAP assays were performed to evaluate the extent to which TLR4 signaling was activated in HEK-Blue reporter cells expressing mouse or human receptors (CD14, MD2 and TLR4). Reporter cells were harvested when 70–80% confluent and plated in 96-well, flat-bottom microtiter plates either 1 h, one day or two days (5 × 10^4, 4 × 10^4 or 2 × 10^4 cells/well, respectively) before addition of TLR4 agonists for 18–24 h. Culture supernatants were transferred to U-bottom microtiter plates, centrifuged and transferred again to microtiter plates to ensure reporter cells were not present. The culture supernatants were added to QUANTI-BLUE substrate following instructions provided by the manufacturer (InvivoGen cat. nos. rep-qbl or rep-qbs) and incubated at 37°C in a tissue culture incubator. At successive intervals beginning 10 min after mixing the supernatants and substrate, the plates were placed in an Emax plate reader (Molecular Devices LLC) and optical density was measured at visible light wavelength […] (OD650). The shortest incubations at which dose response curve fits produced maximal R^2 ‘goodness of fit’ values, as determined by GraphPad Prism software, were used for analysis.
Pharmacological profiles of the TLR4 reagents were generated by performing dose response curves in one of four formats. 1) Agonist potency and efficacy (EC50 and height of dose plateau, respectively) were measured by diluting TLR4 reagents successively in complete culture medium [DMEM or RPMI supplemented with fetal bovine serum (FBS) or RPMI supplemented with human serum, depending on cell-type]. […] 2) Mixed agonist–antagonist potency and efficacy were measured by mixing a TLR4 agonist with a candidate antagonist at a fixed ratio and then performing half-log step dilutions before treating HEK reporter cells. […] 4) Inhibitory potency (IC50) was measured by diluting antagonists within a fixed concentration of a reference agonist, treating HEK reporter cells and performing SEAP assays as described.

[4] = molecular target: T1, human TLR4; test: Mixed agonist-antagonist dose curves at fixed ratio, human TLR4 HEK-Blue SEAP; design: host or cells: HEK-Blue (HEK293-derived) reporter cells
Description: as §4
Pharmacological profiles of the TLR4 reagents were generated by performing dose response curves in one of four formats. 1) Agonist potency and efficacy (EC50 and height of dose plateau, respectively) were measured by diluting TLR4 reagents successively in complete culture medium [DMEM or RPMI supplemented with fetal bovine serum (FBS) or RPMI supplemented with human serum, depending on cell-type]. Half-log step dilutions were performed in 96-well, U-bottom microtiter plates using a multichannel pipette to transfer and mix the suspensions, with fresh tips used for each dilution step. One-tenth (20 μl) volumes from wells of the dilution plate were then transferred to wells containing cells that had been plated in nine-tenth volumes (180 μl) of culture medium. 2) Mixed agonist–antagonist potency and efficacy were measured by mixing a TLR4 agonist with a candidate antagonist at a fixed ratio and then performing half-log step dilutions before treating HEK reporter cells. Analysis of values obtained from SEAP assays of culture supernatants was then performed as described for preparations containing agonist alone, above. 3) Competitive vs allosteric or non-competitive antagonist type was evaluated by diluting a reference agonist within a fixed concentration of a candidate inhibitor in half-log steps, treating HEK reporter cells, performing SEAP assays and then analyzing the data as described for agonist assays, above. Competitive antagonists are characterized by values that reach the same dose plateau as for a reference, full agonist, while shifting potency to higher EC50 values. […] 4) Inhibitory potency (IC50) was measured by diluting antagonists within a fixed concentration of a reference agonist, treating HEK reporter cells and performing SEAP assays as described.

[5] = mixed with 3D-6A-PHAD at 5:1 antagonist:agonist
[6] = mixed with PHAD, ML4A up to 30:1 and 60:1 antagonist:agonist

| Structure (SMILES) | agonist profile, TNFα production [1] | agonist profile, TNFα production [2] | antagonist type [3] | effect on agonist dose curve in fixed-ratio mixture [4, 5] | effect on agonist dose curve in fixed-ratio mixture [4, 6] |
| --- | --- | --- | --- | --- | --- |
| CCCCCCCCCCCC(=O)OC(CCCCCCCCCCC)CC(=O)NC1C(OCC2OC(O)C(NC(=O)CC(O)CCCCCCCCCCC)C(O)C2O)OC(CO)C(OP(=O)(O)O)C1O (stereo not shown) [ML3] | largely inactive | largely inactive | competitive antagonists of human TLR4 | appeared to limit its activity | very modestly reduced TLR4 stimulatory activity |
| CCCCCCCCCCCC(=O)OC(CCCCCCCCCCC)CC(=O)NC1C(OCC2OC(O)C(NC(=O)CC(O)CCCCCCCCCCC)C(O)C2O)OC(CO)C(OP(=O)(O)O)C1OC(=O)CC(O)CCCCCCCCCCC (stereo not shown) [ML4A] | – | – | competitive antagonists of human TLR4 | appeared to limit its activity | very modestly reduced TLR4 stimulatory activity |
| CCCCCCCCCCCCCCCC(=O)OC(CCCCCCCCCCC)CC(=O)NC1C(O)OC(COC2OC(CO)C(OP(=O)(O)O)C(O)C2NC(=O)CC(CCCCCCCCCCC)OC(=O)CCCCCCCCCCC)C(O)C1O (stereo not shown) [ML4B] | largely inactive | largely inactive | – | – | – |
